Data published in publication PMC9127750, “Structure-based design of CDC42 effector interaction inhibitors for the treatment of cancer” (Cell reports, 2022).
Values joined by “and” are separate entries in the source; they are usually repeats but may differ in a detail not shown here. Identical values can stand only once.

Tested on: WM3248 melanoma cells, 486 antibodies
Test: Reverse phase protein arrays (RPPA);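 on CA9.R.C RPPA level: ratio of treated to vehicle (0 µM) normalized linear protein signal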;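 on CD171.M.V RPPA level: ratio of treated to vehicle (0 µM) normalized linear protein signal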;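 on CREB pS133.R.C RPPA level: ratio of treated to vehicle (0 µM) normalized linear protein signal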;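 on Cyclin.B1.R.V RPPA level: ratio of treated to vehicle (0 µM) normalized linear protein signal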
Type: cell-based, Human
Conditions: 5 uM
Description: Pellets were snap frozen in liquid nitrogen and shipped to MD Anderson Cancer Center core RPPA facility for RPPA analysis (Table S5). Three biological replicates for each sample were generated.
Nomenclatures on the RPPA heatmaps: name_of_antibody.species_of_antibody.status_of_antibody. V - antibody validated; C - validation of antibody in progress; Q - antibody nonspecific; E – under evaluation; antibodies raised in M - mouse, G - goat, R - rabbit, or T - rat.

CN(C)c1cccc(Nc2cc(-c3ccccc3)nc(C3CCNCC3)n2)c1 [ARN22089, N1,N1-dimethyl-N3-(6-phenyl-2-(piperidin-4-yl)pyrimidin-4-yl)benzene-1,3-diamine]
RPPA signal, antibody Vinculin.M.V (individual replicates): 0.948 and 1.034 and 1.010
RPPA signal, antibody WIPI1.R.C (individual replicates): 1.016 and 0.609
RPPA signal, antibody WIPI2.R.C (individual replicates): 0.917 and 1.190 and 1.151
RPPA signal, antibody WTAP.R.V (individual replicates): 1.007 and 0.770 and 0.970
RPPA signal, antibody Wee1.R.C (individual replicates): 0.852 and 1.576 and 1.161
RPPA signal, antibody Wee1_pS642.R.C (individual replicates): 0.857 and 1.327 and 1.158
RPPA signal, antibody XBP.1.G.C (individual replicates): 1.019 and 0.701
RPPA signal, antibody XIAP.R.C (individual replicates): 1.016 and 1.128
RPPA signal, antibody XPA.M.V (individual replicates): 1.083 and 0.917 and 1.035
RPPA signal, antibody XPF.R.C (individual replicates): 0.939 and 1.048
RPPA signal, antibody XRCC1.R.C (individual replicates): 1.023 and 0.932 and 0.869
RPPA signal, antibody YAP.R.C (individual replicates): 1.026 and 0.858 and 1.131
RPPA signal, antibody YAP_pS127.R.V (individual replicates): 0.924 and 0.808 and 1.102
RPPA signal, antibody YB1_pS102.R.V (individual replicates): 0.854 and 0.995
RPPA signal, antibody YES1.R.V (individual replicates): 1.034 and 0.913 and 0.948
RPPA signal, antibody YTHDF2.R.V (individual replicates): 1.139 and 0.982 and 0.641
RPPA signal, antibody YTHDF3.R.C (individual replicates): 0.920 and 0.753
RPPA signal, antibody ZAP.70.R.V (individual replicates): 0.901 and 1.193
RPPA signal, antibody ZEB1.R.V (individual replicates): 0.874 and 1.035
C.Raf.R.C RPPA level (replicates): 0.877 and 1.136
C.Raf_pS338.R.V RPPA level (replicates): 1.205
CA9.R.C RPPA level (replicates): 0.982 and 0.948 and 1.015
CD2.M.C RPPA level (replicates): 1.000 and 0.961 and 1.133
CD4.R.V RPPA level (replicates): 0.886 and 1.117
CD5.M.C RPPA level (replicates): 1.034 and 0.973
CD20.R.C RPPA level (replicates): 1.057 and 0.829 and 0.477
CD26.R.V RPPA level (replicates): 0.893 and 1.128 and 0.797
CD29.M.V RPPA level (replicates): 0.991 and 0.954 and 1.138
CD31.M.V RPPA level (replicates): 1.000 and 0.925 and 1.157
CD38.R.C RPPA level (replicates): 0.963 and 1.191 and 1.116
CD44.R.C RPPA level (replicates): 0.984 and 0.955 and 0.823
CD45.M.V RPPA level (replicates): 1.027 and 0.978 and 1.076
CD49b.M.V RPPA level (replicates): 1.059 and 0.901 and 0.919
CD68.M.C RPPA level (replicates): 1.053 and 0.950 and 1.032
CD74.M.V RPPA level (replicates): 0.953
CD134.R.V RPPA level (replicates): 1.004 and 0.980 and 1.076
CD171.M.V RPPA level (replicates): 0.646 and 0.896 and 0.990
CDK1_pT14.R.C RPPA level (replicates): 0.964 and 1.128
CDK9.R.V RPPA level (replicates): 1.046 and 0.940 and 0.953
CDKN2A.R.C RPPA level (replicates): 1.033 and 0.974 and 1.120
CDT1.R.V RPPA level (replicates): 1.009 and 1.034
CENP.A.R.V RPPA level (replicates): 1.061 and 0.838 and 0.961
CIITA.R.C RPPA level (replicates): 0.973 and 0.944 and 0.768
COG3.R.V RPPA level (replicates): 1.020 and 1.162 and 1.108
CRABP1.R.C RPPA level (replicates): 1.003 and 1.061
CRABP2.R.V RPPA level (replicates): 1.206 and 0.955 and 0.945
CREB_pS133.R.C RPPA level (replicates): 0.945 and 1.492 and 0.936
CSK.R.C RPPA level (replicates): 1.015 and 1.119 and 0.620
Calnexin.R.V RPPA level (replicates): 0.967 and 1.097
Caspase.3.cleaved.R.C RPPA level (replicates): 0.926 and 1.159
Caspase.7.cleaved..R.C RPPA level (replicates): 0.858 and 1.158
Caspase.8.M.Q RPPA level (replicates): 1.096 and 0.944
Caspase.8.cleaved.R.C RPPA level (replicates): 0.924 and 1.111 and 1.128
Caveolin.1.R.V RPPA level (replicates): 0.498 and 0.935 and 1.046
Cdc6.R.V RPPA level (replicates): 0.936
Cdc42.R.C RPPA level (replicates): 0.966 and 1.031
Chk1.M.C RPPA level (replicates): 1.078 and 0.961
Chk1_pS296.R.V RPPA level (replicates): 0.982 and 1.154 and 1.114
Chk1_pS345.R.C RPPA level (replicates): 1.000 and 1.084 and 0.861
Chk2.M.V RPPA level (replicates): 1.157 and 0.671
Chk2_pT68.R.C RPPA level (replicates): 0.939 and 1.327 and 1.189
Claudin.7.R.V RPPA level (replicates): 1.057 and 0.909 and 0.755
Collagen.VI.R.V RPPA level (replicates): 1.076 and 0.844 and 1.257
Complex.II.Subunit.M.V RPPA level (replicates): 1.008 and 1.014 and 0.777
Connexin.43.R.C RPPA level (replicates): 1.009 and 1.236
Coup.TFII.R.C RPPA level (replicates): 0.833 and 1.226
Cox2.R.C RPPA level (replicates): 1.024 and 0.895 and 1.250
Cox.IV.R.V RPPA level (replicates): 0.999 and 1.060 and 1.025
Creb.R.C RPPA level (replicates): 1.026 and 1.133 and 1.082
CtIP.R.V RPPA level (replicates): 0.829 and 1.057 and 0.997
Cyclin.B1.R.V RPPA level (replicates): 1.136 and 0.725 and 1.229
Cyclin.D1.R.C RPPA level (replicates): 1.048 and 0.891 and 1.065
Cyclin.D3.M.V RPPA level (replicates): 1.309 and 1.005 and 0.824
Cyclin.E1.R.V RPPA level (replicates): 1.096 and 0.925 and 0.965
Cyclophilin.F.M.V RPPA level (replicates): 0.978 and 1.019 and 0.727
D.a.Tubulin.R.V RPPA level (replicates): 0.975 and 1.193
DAPK1_pS308.M.C RPPA level (replicates): 1.267 and 0.870 and 0.330
DAPK2.R.C RPPA level (replicates): 0.970 and 1.126 and 1.124
DDB.1.R.V RPPA level (replicates): 0.890 and 0.958 and 1.524
DDR1.R.V RPPA level (replicates): 1.024 and 0.829 and 1.002
DDR1_pY513.R.C RPPA level (replicates): 1.024 and 0.961 and 1.078
DJ1.R.V RPPA level (replicates): 1.007 and 1.125
DM.Histone.H3.R.V RPPA level (replicates): 0.950 and 1.152 and 1.117
DM.K9.Histone.H3.M.V RPPA level (replicates): 1.035 and 0.996
DNA.Ligase.IV.R.C RPPA level (replicates): 1.015 and 1.171 and 1.125
DNA_POLG.R.V RPPA level (replicates): 1.082 and 0.866 and 0.834
c.Jun_pS73.R.V RPPA level (replicates): 0.903 and 1.005
c.Kit.R.V RPPA level (replicates): 1.119 and 0.884 and 0.682
c.Met_pY1234_Y1235.R.V RPPA level (replicates): 0.935 and 1.110 and 1.140
c.Myc.R.C RPPA level (replicates): 1.016 and 0.996 and 1.017
cGAS.R.V RPPA level (replicates): 1.013 and 0.955
cdc2_pY15.R.C RPPA level (replicates): 0.982 and 1.425 and 1.193
cdc25C.R.V RPPA level (replicates): 0.985 and 0.925 and 0.943
RPPA MYH11.R.C (single replicates): 1.049 and 0.899 and 0.794
RPPA Myosin.IIa.R.C (single replicates): 0.881 and 0.604
RPPA Myosin.IIa_pS1943.R.V (single replicates): 1.019 and 0.869 and 0.642
RPPA Myt1.R.C (single replicates): 0.900
RPPA N.Cadherin.R.V (single replicates): 1.025 and 0.927 and 1.105
RPPA N.Ras.M.V (single replicates): 1.017 and 0.997
RPPA NAPSIN.A.R.C (single replicates): 0.989 and 1.114 and 1.136
RPPA NDRG1_pT346.R.V (single replicates): 0.757 and 1.000 and 1.113
RPPA NDUFB4.R.V (single replicates): 1.030 and 0.897
RPPA NRF2.R.C (single replicates): 0.980 and 1.023 and 1.172
RPPA Notch1.R.V (single replicates): 0.979 and 0.930
RPPA Notch1.cleaved.R.V (single replicates): 0.872 and 1.026
RPPA Notch3.R.C (single replicates): 0.916 and 1.149
RPPA Oct.4.R.C (single replicates): 1.033 and 1.165 and 1.085
RPPA P.Cadherin.R.C (single replicates): 0.913 and 1.419 and 0.819
RPPA PAI.1.M.V (single replicates): 0.893 and 0.953 and 1.083
RPPA PAICS.R.C (single replicates): 1.002 and 0.988 and 0.707
RPPA PAK1.R.V (single replicates): 1.101
RPPA PAK4.R.V (single replicates): 0.901 and 0.983
RPPA PAK_pS474_S602_S560.R.V (single replicates): 1.077 and 0.883 and 0.855
RPPA PAK_pT423_T402.R.C (single replicates): 0.941 and 1.054 and 0.768
RPPA PAR.R.C (single replicates): 1.057 and 2.014 and 0.910
RPPA PARG.R.C (single replicates): 0.916 and 0.961 and 1.160
RPPA PARP.R.V (single replicates): 0.918 and 1.359 and 0.791
RPPA PAX6.R.V (single replicates): 0.958 and 1.096
RPPA PAX8.R.C (single replicates): 1.084 and 0.915 and 0.888
RPPA PCNA.M.C (single replicates): 0.983 and 0.768
RPPA PD.1.R.V (single replicates): 1.028 and 0.932 and 1.016
RPPA PD.L1.R.C (single replicates): 0.986 and 1.136
RPPA PDH.M.V (single replicates): 1.030 and 0.955 and 1.162
RPPA PDHA1.R.V (single replicates): 0.999 and 1.134 and 1.104
RPPA PDHK1.R.C (single replicates): 0.895 and 1.143 and 1.132
RPPA PDK1.R.V (single replicates): 0.979 and 1.236 and 0.914
RPPA PDK1_pS241.R.V (single replicates): 1.012 and 1.286 and 1.116
RPPA PEA.15.R.V (single replicates): 0.973 and 1.022 and 0.716
RPPA PEA.15_pS116.R.V (single replicates): 1.025 and 1.082
RPPA PERK.R.V (single replicates): 0.799 and 0.886
RPPA PGM1.R.V (single replicates): 0.922
RPPA PHGDH.R.C (single replicates): 1.026 and 1.054 and 1.162
RPPA PHLPP.R.V (single replicates): 1.309 and 0.725 and 0.733
RPPA PI3K.p85.R.C (single replicates): 0.979
RPPA PI3K.p110.a.R.C (single replicates): 0.889 and 1.115 and 1.166
RPPA PI3K.p110.b.M.C (single replicates): 1.076 and 0.970 and 0.893
RPPA PKA.a.R.V (single replicates): 1.082 and 0.998 and 0.958
RPPA PKC.a.b.II_pT638_T641.R.V (single replicates): 0.773 and 0.933
RPPA PKC.b.II_pS660.R.V (single replicates): 0.932 and 1.415 and 1.139
RPPA PKCa.R.V (single replicates): 0.879 and 2.309 and 1.199
RPPA PKM2.R.C (single replicates): 0.777
RPPA PLC.gamma1.R.V (single replicates): 1.266 and 0.848 and 0.796
RPPA PLC.gamma1_pS1248.R.V (single replicates): 1.131 and 1.203 and 0.848
RPPA PLC.gamma2_pY759.R.V (single replicates): 0.953
RPPA PLK1.R.C (single replicates): 0.988 and 0.536 and 1.237
RPPA PMS2.R.V (single replicates): 1.054 and 0.898 and 0.867
RPPA PR.R.V (single replicates): 1.016 and 0.968 and 1.112
RPPA PRAS40.M.C (single replicates): 1.006 and 0.977 and 0.990
RPPA PRAS40_pT246.R.V (single replicates): 0.957 and 1.288 and 0.838
RPPA PRC1_pT481.R.C (single replicates): 0.841 and 0.955
RPPA PREX1.R.V (single replicates): 0.972 and 0.995 and 1.201
RPPA PTEN.R.V (single replicates): 0.880 and 1.147
RPPA PTPN12.R.V (single replicates): 1.009 and 1.217 and 1.054
RPPA PYGB.R.V (single replicates): 0.990 and 0.966 and 0.675
RPPA PYGM.M.C (single replicates): 1.013 and 0.953 and 0.526
RPPA Patched.R.C (single replicates): 0.925 and 1.120 and 1.169
RPPA Paxillin.R.C (single replicates): 0.754 and 1.008 and 1.170
RPPA Pdcd4.R.C (single replicates): 0.973 and 1.288 and 1.207
RPPA Porin.M.V (single replicates): 1.021 and 0.963 and 0.824
RPPA Puma.R.C (single replicates): 1.003 and 0.771
RPPA Pyk2_pY402.R.C (single replicates): 0.977 and 1.146 and 1.149
RPPA RBM15.R.V (single replicates): 0.950 and 1.004 and 0.982
